“Also recorded” adds a separate entry of the source.
What was measured:
[1] = design: method as in PMID 30380863, PMID 36969170; settings: at therapeutic concentrations; cited from earlier work
[2] = molecular target: T. vaginalis Tv20S proteasome β1 subunit (Trichomonas vaginalis, UniProt A2E7Z2); assay: In vitro proteasome assay, Ac-RYFD-amc substrate; assay type: biochemical; settings: recombinant Tv20S, mean ± SD of three experiments
Description: (§1) The T. vaginalis proteasome was expressed in recombinant form as previously described ([27]). Briefly, Spodoptera frugiperda cells were co-infected with three baculovirus vectors carrying the T. vaginalis genes for the 7 α-subunits, 7 β-subunits, and the Ump-1 chaperone, respectively. The resulting proteasome complex was purified from cell lysates via streptavidin column and size exclusion chromatography and stored at −80°C. Purified human c20S proteasome and recombinant human proteasome activator PA28α ([21]) were obtained from Bio-Techne and stored at −80°C. Dilutions of the test agents were transferred to 384-well plates (Greiner Bio-One) in triplicate wells using an Echo 650 Acoustic Liquid Handler (Beckman Coulter). Six replicate plates were prepared for each compound for testing with three T. vaginalis-optimized substrates and three human-optimized substrates. After dispensing, plates were sealed and stored at −20°C. The following fluorescent substrates and final substrate concentrations were used to assay subunit activities of the T. vaginalis proteasome (Tv20S) ([28]) or the human constitutive proteasome (c20S) ([19], [52]): Ac-RYFD-amc (Genscript) at 100 µM for Tv20S β1 subunit, Ac-FRSR-amc (Genscript) at 20 µM for Tv20S β2 subunit, Ac-GWYL-amc (Genscript) at 20 µM for Tv20S β5 subunit, z-LLE-amc (R&D Systems) at 80 µM for c20S β1 subunit, z-VLR-amc (AdipoGen Life Sciences) at 30 µM for c20S β2 subunit, and suc-LLVY-amc (R&D Systems) at 65 µM for c20S β5 subunit. Substrates and proteasomes were diluted in an assay buffer consisting of HEPES pH 7.5 and 1 mM DTT. For the human proteasome assays, 2 nM c20S was incubated at room temperature with 200 nM PA28α for 1 h to activate the complex prior to addition to the 384-well plates containing the substrate-inhibitor mixtures. […] Both proteasomes were added to the wells at a 1 nM final assay concentration. Fluorescence was measured over 4 h at 360 nm excitation and 460 nm emission on a Biotek Synergy HTX plate reader.

[3] = molecular target: T1, Human c20S proteasome β2 subunit (Homo sapiens, UniProt P49720+Q99436); assay: In vitro proteasome assay, z-VLR-amc substrate; assay type: biochemical; settings: purified human c20S with PA28α, mean ± SD
T1 construct: purchased Bio-Techne
Description: as §1

[4] = system: β5 proteasome subunit in live T. vaginalis F1623 (compared to human HeLa cells); assay: Fluorescence gel assay of proteasome subunit targeting in live cells; assay type: cell-based, Trichomonas vaginalis; settings: 3 h incubation, gel densitometry, T. vaginalis F1623 vs HeLa
Description: T. vaginalis F1623 and human HeLa cells were incubated for 3 h with proteasome inhibitors at a range of concentrations or with solvent as a control. Cells were lysed by three consecutive freeze/thaw cycles in a buffer of 50 mM HEPES, pH 7.5, 10 µM E64, 100 µM AEBSF, 10 µM RR11a, 1 µM Pepstatin, and 1 mM DTT. Protein concentrations were measured with the Pierce BCA assay (Thermo Scientific) and adjusted to 5 mg/mL. Samples were incubated with 2 µM Me4BodipyFL-Ahx3Leu3VS ([53]) at 2.5 mg/mL protein concentration for 24 h at 37°C. […] Band intensities were quantified using ImageJ (NIH). Each peak corresponding to a protein band was selected, and the area under the curve was determined after subtraction of the intensity in an adjacent area outside of the respective band. For closely spaced bands, the midpoint between the peaks of two bands was used to separate the areas. Band intensities were normalized to the respective controls, not incubated with inhibitors.

[5] = system: ubiquitin-conjugated proteins in T. vaginalis F1623; assay: Immunoblot analysis of ubiquitin labeling; assay type: cell-based, Trichomonas vaginalis; settings: 3 h treatment, 30× GI50
Description: Protein concentrations were measured using the Pierce BCA assay (Thermo Scientific) and adjusted to 10 mg/mL. Proteins were fractionated on SDS-PAGE, transferred onto a nitrocellulose membrane (Bio-Rad), which was blocked with 5% non-fat dry milk in TBST buffer (20 mM Tris base, 150 mM NaCl, 0.05% Tween 20, pH adjusted to 7.6 with HCl) for 1 h and probed with primary anti-ubiquitin antibody (Proteintech, 10201-2-AP) at a 1:2,000 dilution, followed by incubation with anti-rabbit horseradish peroxidase (HRP)-conjugated IgG (Jackson laboratory) at a 1:5,000 dilution. HRP labeling was visualized by chemiluminescence (Immobilon, Millipore).

[6] = system: T. vaginalis strain F1623; assay: 24 h growth and survival assay (ATP luminescence, GI50); assay type: cell-based, Trichomonas vaginalis; settings: for SI (ratio of GI50 in HeLa cells over GI50 in T. vaginalis): T. vaginalis F1623 vs human HeLa cells
Description: The following T. vaginalis strains were used: F1623 ([50]), G3 (ATCC PRA-98), and LA1 ([25]). […] Drug susceptibility assays were performed as described previously ([23]) with several minor modifications. Briefly, 10 mM stocks of the test compounds in DMSO were serially diluted 1:3 using an Echo 650 Acoustic Liquid Handler (Beckman Coulter). Subsequently, trophozoites (5 × 10^3/well) in TYM modified media were added to the wells in 384-well plates, and cultures were incubated for 24 h at 37°C under anaerobic conditions (AnaeroPack-Anaero System; Remel). For testing in mammalian cells, the following cell lines were used: Human cervical cancer cells HeLa (ATCC CCL-2), non-transformed mouse fibroblast cell line 3T3-L1 (ATCC CL-173), normal monkey kidney epithelial cell line Vero (ATCC CCL-81), and human B lymphoma cells Raji (ATCC CCL-86). Test compounds were serially diluted (1:3) and added to mammalian cell cultures grown in 384-well plates, and cultures were incubated for 48 h at 37°C in 5% CO2, 95% air. Growth and viability of T. vaginalis and mammalian cells were determined with an ATP assay by adding the BacTiter-Glo Microbial Cell Viability Assay reagent (Promega) directly to the wells and measuring ATP-dependent luminescence in a microplate reader. […] Experiments were repeated at least three times, and the mean and SEM of the pGI50 values were calculated.

[7] = molecular target: T2, Human c20S proteasome β1 subunit (Homo sapiens, UniProt P28072+Q99436); assay: In vitro proteasome assay, z-LLE-amc substrate; assay type: biochemical; settings: purified human c20S with PA28α, mean ± SD
T2 construct: purchased Bio-Techne
Description: as §1

[8] = system: T. vaginalis Tv20S proteasome β2 subunit; assay: In vitro proteasome assay, Ac-FRSR-amc substrate; assay type: biochemical, Trichomonas vaginalis; settings: recombinant Tv20S, mean ± SD of three experiments
Description: as §1

[9] = molecular target: T. vaginalis Tv20S proteasome β5 subunit (Trichomonas vaginalis, UniProt A2DD57+A2F716); assay: biochemical; assay type: biochemical; settings: recombinant Tv20S, mean ± SD of three experiments; for IC50: read-out: Tv20S proteasome inhibition of β5 subunit (IC50)
Description: as §1

[10] = molecular target: T3, Human c20S proteasome β5 subunit (Homo sapiens, UniProt P20618+P28074); assay: In vitro proteasome assay, suc-LLVY-amc substrate; assay type: biochemical; settings: purified human c20S with PA28α, mean ± SD; for IC50: read-out: Human c20S proteasome inhibition of β5 subunit (IC50)
T3 construct: purchased Bio-Techne
Description: as §1

human cell line HeLa = assay: 48 h cytotoxicity (growth and viability) assay in mammalian cells; assay type: cell-based
Description: The following T. vaginalis strains were used: F1623 ([50]), G3 (ATCC PRA-98), and LA1 ([25]). Parasites were grown at 37°C in TYM Diamond’s medium supplemented with 180 µM ferrous ammonium sulfate ([51]). Drug susceptibility assays were performed as described previously ([23]) with several minor modifications. Briefly, 10 mM stocks of the test compounds in DMSO were serially diluted 1:3 using an Echo 650 Acoustic Liquid Handler (Beckman Coulter). Subsequently, trophozoites (5 × 10^3/well) in TYM modified media were added to the wells in 384-well plates, and cultures were incubated for 24 h at 37°C under anaerobic conditions (AnaeroPack-Anaero System; Remel). For testing in mammalian cells, the following cell lines were used: Human cervical cancer cells HeLa (ATCC CCL-2), non-transformed mouse fibroblast cell line 3T3-L1 (ATCC CL-173), normal monkey kidney epithelial cell line Vero (ATCC CCL-81), and human B lymphoma cells Raji (ATCC CCL-86). […] Growth and viability of T. vaginalis and mammalian cells were determined with an ATP assay by adding the BacTiter-Glo Microbial Cell Viability Assay reagent (Promega) directly to the wells and measuring ATP-dependent luminescence in a microplate reader. […] Experiments were repeated at least three times, and the mean and SEM of the pGI50 values were calculated.

Chain of T. vaginalis Tv20S proteasome β1 subunit (A2E7Z2 entry or part of it): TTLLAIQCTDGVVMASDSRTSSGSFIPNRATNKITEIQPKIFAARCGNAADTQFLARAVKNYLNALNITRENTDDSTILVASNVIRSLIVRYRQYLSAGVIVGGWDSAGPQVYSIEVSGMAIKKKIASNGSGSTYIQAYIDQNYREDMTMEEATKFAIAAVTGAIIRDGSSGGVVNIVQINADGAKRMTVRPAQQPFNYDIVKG
Chain of T. vaginalis Tv20S proteasome β5 subunit (A2DD57 entry or part of it): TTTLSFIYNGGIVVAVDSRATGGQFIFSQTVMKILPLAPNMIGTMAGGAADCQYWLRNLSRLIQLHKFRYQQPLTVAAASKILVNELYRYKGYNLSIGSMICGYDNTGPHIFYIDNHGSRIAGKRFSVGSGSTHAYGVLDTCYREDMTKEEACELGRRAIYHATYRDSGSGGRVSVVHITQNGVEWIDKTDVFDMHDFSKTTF
Chain of T. vaginalis Tv20S proteasome β5 subunit (A2F716 entry or part of it): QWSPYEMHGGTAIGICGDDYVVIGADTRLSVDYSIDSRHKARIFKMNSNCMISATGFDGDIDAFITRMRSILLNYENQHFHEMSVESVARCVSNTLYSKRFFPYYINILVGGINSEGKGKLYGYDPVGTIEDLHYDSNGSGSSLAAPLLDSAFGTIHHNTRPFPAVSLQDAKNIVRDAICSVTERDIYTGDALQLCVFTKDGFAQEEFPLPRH

| Compound | Tv20S proteasome inhibition of β1 subunit (IC50) [2] | Human c20S proteasome inhibition of β2 subunit (IC50) [3] | Human c20S proteasome inhibition of β1 subunit (IC50) [7] | Tv20S proteasome inhibition of β2 subunit (IC50) [8] | IC50 [9] | IC50 [10] | effect on T-dependent antibody responses or number of circulating lymphocytes [1] | β5 inactivated in T. vaginalis at lower concentrations compared to human cells [4] | abundance of ubiquitin-labeled proteins [5] | SI (ratio of GI50 in HeLa cells over GI50 in T. vaginalis) [6] | growth inhibitory activity against T. vaginalis (in words) ([6]; F1623) | Tv20S proteasome inhibition of β5 subunit (IC50) [9] | Human c20S proteasome inhibition of β5 subunit (IC50) [10] | growth inhibitory activity against human cells (in words) (human cell line HeLa) |
| --- | --- | --- | --- | --- | --- | --- | --- | --- | --- | --- | --- | --- | --- | --- |
| COc1ccc([C@@H](O)[C@H](NC(=O)[C@H](C)NC(=O)CN2CCOCC2)C(=O)N[C@@H](CC2=CCCC2)C(=O)[C@@]2(C)CO2)cc1 [zetomipzomib, (2 S,3 R)-N-((S)-3-(Cyclopent-1-en-1-yl)-1-((R)-2-methyloxiran-2-yl)-1-oxopropan-2-yl)-3-hydroxy-3-(4-methoxyphenyl)-2-((S)-2-(2-morpholinoacetamido)propanamido)propenamide] | – | – | – | – | – | – | did not significantly affect | – | – | – | – | – | – | – |
| CCCCCC(=O)NC(CC(=O)NC(CCCC)C(=O)NC(Cc1ccccc1)C(=O)C1(C)CO1)CC(=O)OC(C)(C)C (stereo not drawn) [compound 8] | Activation | No inhibition | No inhibition | No inhibition | 43.7 ± 12.3 nM | 4100 nM | – | 22 fold | accumulation of ubiquitinated proteins | 218.8 | – | – | – | – |
| C=C(C)C(=O)[C@H](Cc1ccccc1)NC(=O)[C@H](Cc1ccc(OC)cc1)NC(=O)[C@H](C)NC(=O)C1=C(C)c2ccccc2C1 [compound 104] | did not inhibit; also recorded: No inhibition | no inhibitory activity; also recorded: No inhibition | no inhibitory activity; also recorded: No inhibition | did not inhibit; also recorded: No inhibition | – | – | – | – | – | 1.05 | only minimally inhibitory | did not inhibit; also recorded: No inhibition | no inhibitory activity; also recorded: No inhibition | only minimally inhibitory |
| COc1ccc(C[C@H](NC(=O)[C@H](C)NC(=O)C2=C(C)c3ccccc3C2)C(=O)N[C@@H](Cc2ccccc2)C(=O)[C@]2(C)CO2)cc1 [compound 22] | Activation | No inhibition | No inhibition | No inhibition | 60.5 ± 8.1 nM | 84.8 ± 20.2 nM | – | – | – | 16.6 | – | – | – | – |

More lines, main results first:

| Tv20S proteasome inhibition of β1 subunit (IC50) [2] | Human c20S proteasome inhibition of β2 subunit (IC50) [3] | Human c20S proteasome inhibition of β1 subunit (IC50) [7] | Tv20S proteasome inhibition of β2 subunit (IC50) [8] | IC50 [9] | IC50 [10] | Compound | effect on T-dependent antibody responses or number of circulating lymphocytes [1] | β5 inactivated in T. vaginalis at lower concentrations compared to human cells [4] | abundance of ubiquitin-labeled proteins [5] | SI (ratio of GI50 in HeLa cells over GI50 in T. vaginalis) [6] | growth inhibitory activity against T. vaginalis (in words) ([6]; F1623) | Tv20S proteasome inhibition of β5 subunit (IC50) [9] | Human c20S proteasome inhibition of β5 subunit (IC50) [10] | growth inhibitory activity against human cells (in words) (human cell line HeLa) |
| --- | --- | --- | --- | --- | --- | --- | --- | --- | --- | --- | --- | --- | --- | --- |
| Activation | No inhibition | No inhibition | No inhibition | 20.6 ± 5.39 nM | 379 ± 61.2 nM | COc1ccc(CC(NC(=O)C(C)NC(=O)OCc2ccccc2)C(=O)NC(Cc2ccccc2)C(=O)C2(C)CO2)cc1 (stereo not drawn) [compound 12] | – | 12 fold | accumulation of ubiquitinated proteins | 63.1 | – | – | – | – |
| Activation | No inhibition | No inhibition | No inhibition | 4.29 ± 2.23 nM | 45.3 ± 4.67 nM | COc1ccc(CC(NC(=O)C(C)NC(=O)OCc2ccccc2)C(=O)NC(Cc2ccccc2)C(=O)C2(C)CO2)cc1 (stereo not drawn) [compound 11] | – | – | – | 51.3 | – | – | – | – |

Source: publication PMC12691669, “Inhibitors of the 20S proteasome β5 subunit as potent and selective agents against Trichomonas vaginalis” (Antimicrobial Agents and Chemotherapy, 2025)
